Structures can show the parent of a compound that is named as a salt.
How the values were obtained:
[1] = PK model with a metabolite compartment fitted simultaneously to i.v. and i.p. rat plasma data
Procedure: (§1) Pharmacokinetic parameters were calculated by employing a non-compartmental approach, using Phoenix WinNonlin software v. 6.3 (Pharsight, USA). For i.v. administration, plasma concentration at time zero (C 0) was back-extrapolated using log-linear regression, while the maximum concentration after i.p. administration (C max) and the time to C max (t max) were obtained directly from the concentration-time data. The area under the mean plasma concentration versus time curve extrapolated to infinity (AUC0-inf) was estimated using the log/linear trapezoidal rule. AUMC0-inf was estimated by calculation of the total area under the first-moment curve by combining the trapezoid calculation of AUMC0-t and extrapolated area. The mean residence time (MRT) was calculated from AUMC0-inf/AUC0-inf. The terminal rate constant (λ z) was calculated by log-linear regression of the drug concentration data in the terminal phase and the terminal half-life (t 1/2) was calculated as 0.693/λ z. The systemic clearance (CL) was estimated from the administered dose divided by AUC0-inf. The volume of distribution at steady state (V ss) was calculated from D i.v.⋅AUMC/AUC^2, where D i.v is the dose administered i.v. in mg per kg of body weight. The concentration versus time profiles of the parent drug and metabolite following both routes of administration were also fitted simultaneously to the pharmacokinetic model with a metabolite compartment to obtain one set of parameters. During iteration process, the fraction of dose absorbed (F) was fixed to the value calculated using the following equation:1 F=AUC0−ti.p.∙Di.v./AUC0−ti.v.∙Di.p.

[2] = Isolated perfused rat liver (IPRL) study, recirculating; conditions: for form eliminated with bile: mass spectrometric analysis of rat bile, precursor ion 292 mode
Procedure: Rat livers were perfused in situ using PS-1 perfusion system from Harvard Apparatus-Hugo Sachs Electronics (HA-HSE). […] The temperature of the perfusion medium was thermostatically controlled at 37 °C. In each experiment, the common bile duct was cannulated with PE-10 tubing. […] Experiments were carried out in a recirculating manner with the total volume of perfusate equal 200 mL. […] Samples of bile were collected in pre-weighed Eppendorf vials and measured by gravimetric volume at the end of perfusion period, assuming a density of 1. Perfusate was collected from the reservoir at 5 min intervals up to 45 min.
Non-compartmental estimates of hepatic pharmacokinetic parameters were determined from the outflow concentration-time profiles. The hepatic extraction ratio (ERH) was calculated according to the following equation:2 ERH=CLH/Q where CLH is a hepatic clearance (per gram of liver) and Q is a perfusate flow (per gram of liver).
The apparent hepatobiliary clearance (CLb,app) was calculated as the cumulative amount of drug excreted in bile divided by the AUC0-t of the drug in the perfusate.

[3] = Stability of analytes in rat plasma (bench top, freezer, freeze/thaw, autosampler); type: in vitro ADME; conditions: bench top 2 h, − 30°C 90 days, autosampler 10°C up to 24 h
Procedure: The stability of analytes was determined in the battery of tests according to the appropriate guidelines. Namely, the bench top stability (for 2 h), freezer stability (at − 30°C for 90 days), freeze/thaw stability and post preparative autosampler stability (at 10°C up to 24 h). Samples were considered to be stable when 85–115% of the initial concentrations were found.

[4] = Pharmacokinetic study in rats after single i.v. or i.p. tianeptine, non-compartmental analysis; conditions: rat
Procedure: Male Wistar rats, 13–15 weeks of age and weighing between 200 and 220 g, were used in all the experiments. They were kept under conditions of constant temperature (21–25 °C) and a relative humidity of approximately 40–65% with a standard light/dark cycle. Animals were housed in the stainless steel cages with suspended wire-mesh floors and had free access to water and the commercial rodent chow.
Six rats were used in PK experiments, and 3 days prior to the experiment, rat jugular vein was cannulated allowing for the multiple blood sampling from a single animal. […] Plasma was harvested by centrifuging at 3000 r.p.m. for 10 min and stored at − 30°C until bioanalysis. Plasma samples (100 μL) were further processed as described in “Sample preparation” section.
as §1
where AUC0-t is the area under the concentration versus time curve calculated to the last measured point and D is the dose administered.

[5] = humans ref Carlhant et al. [1990]; cited from earlier work
[6] = male, Wistar, in vivo, ip, 10 mg/kg
[7] = male, Wistar, in vivo, iv, 1 mg/kg

SMILES | half-life ([1]; male, Wistar, in vivo) [h] | k el ([1]; male, Wistar, in vivo) [s⁻¹] | V m/f m ([1]; metabolite compartment, i.v. and i.p. fitted simultaneously) [L/kg] | metabolic ratio of MC5 (AUC0-t metabolite / AUC0-t tianeptine) ([2]; isolated perfused rat liver, mean ± SD) [%] | form eliminated with bile [2] | percent eliminated into the bile ([2]; up to 45 min of perfusion, mean ± SD) | stability in rat plasma [3] | time at which C max attained ([4]; after both routes of administration (i.v. and i.p.) of tianeptine) [min] | t 0.5λz ([4]; after tianeptine i.p. 10 mg/kg, GM (90% CI), n = 3) | Cmax [4, 6] [ng/mL] | MRT [4, 6] [h] | Tmax [4, 6] [h] | k el [4, 6] [s⁻¹] | MRT [4, 7] [h] | Tmax [4, 7] [h] | half-life [4, 7] [h] | k el [4, 7] [s⁻¹] | overall exposure (AUC) to MC5 relative to tianeptine ([4]; regardless of the route of administration) [times] | time to C max [5] [h]
CN1c2ccccc2C(NCCCCC(=O)O)c2ccc(Cl)cc2S1(=O)=O (centres unmarked) [MC5, tianeptine metabolite MC5 sodium salt] | 1.66 | 0.000116 | 2.971 | 18.76 ± 8.11 | glucuronide and glutamine conjugates | 3.07 ± 0.66 % of the administered dose | no stability related problems | 30 | 3.69 (1.39–9.83) h | 2020 | 4.1 | 0.5 | 5.19e-05 | 8.28 | 0.4 | 7.53 | 2.5e-05 | 1.2 | 2.96 ± 0.95
CN1c2ccccc2C(NCCCCCCC(=O)O)c2ccc(Cl)cc2S1(=O)=O (centres unmarked) [Tianeptine, Tianeptine sodium salt, reference compound] | – | – | – | – | glucuronide and glutamine conjugates | – | – | – | – | – | – | – | – | – | – | – | – | – | –
